Values of other authors as cited in US20230399457A1, “Bioactive Synthetic Copolymer, Bioactive Macromolecule and Related Methods Thereof” (Agency for Science, Technology and Research, priority 2020, published 2023).

Tested on: rats

Q: For “AGQWHRVSVRWGC [A5G81, laminin-derived peptide]”, which wound healing is on record?
A: facilitate wound healing in rats
